# From patent publication EP4800020A2, “ZWITTERIONIC REAGENTS” (Siemens Healthcare Diagnostics, Inc., priority 2010, dated 2011)
# Peptide text beside a SMILES is read from it. * marks the point of attachment. X1 = C[N+](C)(CCCC(=O)*)CCCS(=O)(=O)[O-]
# Experiment: Aqueous solubility of zwitterion-modified hydrophobic peptides in de-ionized water
# Type: physicochemical
# Conditions: concentration giving a clear solution, peptide labeled at the α-amino group with Z3-PFP
# Experimental: Specifically, four representative hydrophobic peptides, penta(phenylalanine), a tetrapeptide with the sequence Phe-Gly-Gly-Phe, penta(leucine) and penta(isoleucine) were all labeled at the α-amino group with the amine-reactive, zwitterionic reagent Z3-PFP (compound 2c in Figure 1). One such labeling experiment is illustrated in Example 12. The zwitterion-modified peptides were purified by chromatography and their aqueous solubility was assessed by dissolving them in de-ionized water at concentrations that gave clear homogenous solutions. […] Penta(phenylalanine) modified by the zwitterion-containing compound Z3-PFP, compound 2c, dissolved in water and provided a clear solution at a concentration of ~0.5 mM.
row,solubility [µM],Structure (SMILES)
1,≥ 100,CC(C)C[C@H](NC(=O)[C@H](CC(C)C)NC(=O)[C@H](CC(C)C)NC(=O)[C@H](CC(C)C)NC(=O)[C@H](CC(C)C)NC(=O)CCC[N+](C)(C)CCCS(=O)(=O)[O-])C(=O)O (X1-LLLLL-OH)
2,≥ 100,CC[C@H](C)[C@H](NC(=O)[C@@H](NC(=O)[C@@H](NC(=O)[C@@H](NC(=O)[C@@H](NC(=O)CCC[N+](C)(C)CCCS(=O)(=O)[O-])[C@@H](C)CC)[C@@H](C)CC)[C@@H](C)CC)[C@@H](C)CC)C(=O)O (X1-IIIII-OH)
3,≥ 500,C[N+](C)(CCCC(=O)N[C@@H](Cc1ccccc1)C(=O)N[C@@H](Cc1ccccc1)C(=O)N[C@@H](Cc1ccccc1)C(=O)N[C@@H](Cc1ccccc1)C(=O)N[C@@H](Cc1ccccc1)C(=O)O)CCCS(=O)(=O)[O-] (X1-FFFFF-OH)
4,≥ 3000,C[N+](C)(CCCC(=O)N[C@@H](Cc1ccccc1)C(=O)NCC(=O)NCC(=O)N[C@@H](Cc1ccccc1)C(=O)O)CCCS(=O)(=O)[O-] (X1-FGGF-OH)
